# Measured values from patent US9296732B2, “Substituted benzamides and their uses” (The Board of Trustees of the Leland Stanford Junior …, priority 2012, dated 2016).
# Tested on: RCC4/VHL
# Assay: XTT cell viability assay, RCC4 with VHL-reintroduced (RCC4/VHL) versus RCC4, selectivity ratio
# Format: cell-based
# Details: first TABLE 1 (II series)
# Experimental: RCC4 parental and RCC4 with VHL-reintroduced (RCC4/VHL), SN12C and SN12C-CSCG-VHL shRNA were maintained in DMEM supplemented with 10% FCS.
# For 2,3-bis[2-methoxy-4-nitro-5-sulfophenyl]-2H-tetrazolium-5-carboxanilide (XTT) assays, five thousand cells were plated in 96-well plates. The next day, vehicle (DMSO) or drug was added by serial dilution. Four days later, media were aspirated, XTT solution (0.3 mg/ml of XTT (Sigma), 2.65 mg/ml N-methyl dibenxopyrazine methyl sulfate (Simga) in phenol red-free media) was added, and the plates were incubated at 37° C. for 1-2 hours. Metabolism of XTT was quantified by measuring the absorbance at 450 nm. IC50s were calculated using linear interpolation. For clonogenic survival assays, three hundred cells were plated per 60 mm tissue culture dish. The cells were allowed to attach overnight and then treated with vehicle or drug for 14 days. Colonies were fixed and stained with crystal violet (0.1% crystal violet in 95% ethanol). All conditions were measured in triplicate and each experiment was done in duplicate or triplicate. To determine necrosis, cells were treated with drug for a given time point. Media and cells were collected, centrifugated, and resuspended in 0.4% trypan blue (Invitrogen). Live and dead cells were counted on a hematocytometer.
# The designation A reflects an IC50 of <1 nM; B reflects an IC50 ranging from 1 to 20 nM; and C is an IC50 of >20 nM. The designation “a” reflects a ratio of RCC4/RCC-VHL+ ranging from 1 to ≦10; “b” reflects from 10 to ≦100; “c” reflects a ratio of >100. Compounds 1-29 have an IC50 value of ≦10 μM when tested in the above assay.
row,SMILES,Ratio = IC50RCC4/VHL/IC50RCC4
1,"O=C(Nc1cccnc1)c1ccc(CNS(=O)(=O)c2ccc(Oc3ccccc3)nc2)cc1 [II-3, 4-({[(6-Phenoxy-3-pyridinyl)sulfonyl]amino}methyl)-N-(3-pyridinyl)benzamide]",a (a ratio of RCC4/RCC-VHL+ ranging from 1 to ≦10)

# Same assay, conditions: second TABLE 1 (Examples 39-55)
row,SMILES,Ratio (IC50 RCC4 Proficient VHL)/IC50 RCC4 Deficient VHL)
1,Cc1oc(-c2ccc(C(=O)NCc3cccnc3)cc2)nc1CS(=O)(=O)[C@H]1CC[C@@H](N2CCCC2)CC1 [Example 42],b (from 10 to ≦100)
2,Cc1oc(-c2ccc(C(=O)NCc3cccnc3)cc2)nc1CS(=O)(=O)[C@H]1CC[C@@H](N2CCCCC2)CC1 [Example 43],b (from 10 to ≦100)
3,Cc1oc(-c2ccc(C(=O)NCc3cccnc3)cc2)nc1CS(=O)(=O)[C@H]1CC[C@H](N2CCCC2)C1 [Example 48],b (from 10 to ≦100)
4,Cc1oc(-c2ccc(C(=O)NCc3cccnc3)cc2)nc1CS(=O)(=O)[C@H]1CC[C@H](N2CCCC2)CC1 [Example 45],b (from 10 to ≦100)
5,Cc1oc(-c2ccc(C(=O)NCc3cccnc3)cc2)nc1CS(=O)(=O)[C@@H]1CC[C@H](N)C1 [Example 50],b (from 10 to ≦100)

# Tested on: not given
# Assay: not given
# Details: not given
row,SMILES,melting point [°C]
1,"Cc1ccc(S(=O)(=O)Cc2csc(-c3ccc(C(=O)NCc4cccnc4)cc3)n2)cc1 [Example 25, 4-(4-{[(4-Methylphenyl)sulfonyl]methyl}-1,3-thiazol-2-yl)-N-(3-pyridinylmethyl)benzamide]",178 to 181
2,"Cc1ccc(S(=O)(=O)Cc2nc(-c3ccc(C(=O)N(C)Cc4cccnc4)cc3)oc2C)cc1 [Example 7, N-Methyl-4-(5-methyl-4-{[(4-methylphenyl)sulfonyl]methyl}-1,3-oxazol-2-yl)-N-(3-pyridinylmethyl)benzamide]",77 to 80
3,"Cc1ccc(S(=O)(=O)Cc2nc(-c3ccc(C(=O)NCc4cnccn4)cc3)oc2C)cc1 [Example 9, 4-(5-Methyl-4-{[(4-methylphenyl)sulfonyl]methyl}-1,3-oxazol-2-yl)-N-(2-pyrazinylmethyl)benzamide]",204 to 206
4,"Cc1oc(-c2ccc(C(=O)NCc3cccnc3)cc2)nc1CS(=O)(=O)c1ccc(Br)cc1 [Example 16, 4-(4-{[(4-Bromophenyl)sulfonyl]methyl}-5-methyl-1,3-oxazol-2-yl)-N-(3-pyridinylmethyl)benzamide]",224 to 227
5,"Cc1oc(-c2ccc(C(=O)NCc3cccnc3)cc2)nc1CS(=O)(=O)c1ccc(N2CCOCC2)cc1 [Example 24, 4-[5-Methyl-4-({[4-(4-morpholinyl)phenyl]sulfonyl}methyl)-1,3-oxazol-2-yl]-N-(3-pyridinylmethyl)benzamide]",208 to 210
6,"O=C(Nc1cccnc1)c1ccc(CNS(=O)(=O)c2nnc[nH]2)cc1 [II-7, N-(3-pyridinyl)-4-{[(4H-1,2,4-triazol-3-ylsulfonyl)amino]methyl}benzamide]",266 to 269
7,"Cc1ccc(S(=O)(=O)Cc2nc(-c3ccc(C(=O)NCc4ccncc4)cc3)oc2C)cc1 [Example 6, 4-(5-Methyl-4-{[(4-methylphenyl)sulfonyl]methyl}-1,3-oxazol-2-yl)-N-(4-pyridinylmethyl)benzamide]",169 to 172
8,"Cc1ccc(S(=O)(=O)Cc2nc(-c3ccc(C(=O)NCCc4cccnc4)cc3)oc2C)cc1 [Example 8, 4-(5-Methyl-4-{[(4-methylphenyl)sulfonyl]methyl}-1,3-oxazol-2-yl)-N-[2-(3-pyridinyl)ethyl]benzamide]",207 to 208
9,"Cc1oc(-c2ccc(C(=O)NCc3cccnc3)cc2)nc1CS(=O)(=O)c1ccccc1 [Example 12, 4-[5-Methyl-4-[(phenylsulfonyl)methyl]-1,3-oxazol-2-yl]-N-(3-pyridinylmethyl)benzamide]",196 to 198
10,"Cc1ccc(S(=O)(=O)Cc2nc(-c3ccc(C(=O)Nc4ccncc4)cc3)oc2C)cc1 [Example 2, 4-(5-Methyl-4-{[(4-methylphenyl)sulfonyl]methyl}-1,3-oxazol-2-yl)-N-(4-pyridinyl)benzamide]",229 to 231
11,"COc1ccc(S(=O)(=O)Cc2nc(-c3ccc(C(=O)NCc4cccnc4)cc3)oc2C)cc1 [Example 18, 4-(4-{[(4-Methoxyphenyl)sulfonyl]methyl}-5-methyl-1,3-oxazol-2-yl)-N-(3-pyridinylmethyl)benzamide]",189 to 191
12,"Cc1cccc(S(=O)(=O)Cc2nc(-c3ccc(C(=O)NCc4cccnc4)cc3)oc2C)c1 [Example 17, 4-(5-Methyl-4-{[(3-methylphenyl)sulfonyl]methyl}-1,3-oxazol-2-yl)-N-(3-pyridinylmethyl)benzamide]",179 to 181
13,"O=C(Nc1cccnc1)c1ccc(CNS(=O)(=O)c2ccc(Cl)nc2)cc1 [II-2, 4-({[(6-Chloro-3-pyridinyl)sulfonyl]amino}methyl)-N-(3-pyridinyl)benzamide]",226 to 228
14,"Cc1ncc(S(=O)(=O)NCc2ccc(C(=O)Nc3cccnc3)cc2)n1C [II-6, 4-({[(1,2-Dimethyl-1H-imidazol-5-yl)sulfonyl]amino}methyl)-N-(3-pyridinyl)benzamide]",238 to 240
15,"Cc1oc(-c2ccc(C(=O)NCc3cccnc3)cc2)nc1CS(=O)(=O)c1ccc(C(C)(C)C)cc1 [Example 14, 4-(4-{[(4-tert-Butylphenyl)sulfonyl]methyl}-5-methyl-1,3-oxazol-2-yl)-N-(3-pyridinylmethyl)benzamide]",177 to 180
16,"Cc1ccc(S(=O)(=O)Cc2nc(-c3ccc(C(=O)NCc4nccn4C)cc3)oc2C)cc1 [Example 10, N-[(1-Methyl-1H-imidazol-2-yl)methyl]-4-(5-methyl-4-{[(4-methylphenyl)sulfonyl]methyl}-1,3-oxazol-2-yl)benzamide]",190 to 192
17,"Cc1oc(-c2ccc(C(=O)NCc3cccnc3)cc2)nc1CS(=O)(=O)c1ccc(N2CCN(C)CC2)cc1 [Example 23, 4-[5-Methyl-4-({[4-(4-methyl-1-piperazinyl)phenyl]sulfonyl}methyl)-1,3-oxazol-2-yl]-N-(3-pyridinylmethyl)benzamide]",210 to 215
18,"Cc1ccc(S(=O)(=O)Cc2nc(-c3ccc(C(=O)N(C)c4cccnc4)cc3)oc2C)cc1 [Example 3, N-Methyl-4-(5-methyl-4-{[(4-methylphenyl)sulfonyl]methyl}-1,3-oxazol-2-yl)-N-(3-pyridinyl)benzamide]",195 to 197
19,"Cc1oc(-c2ccc(C(=O)NCc3cccnc3)cc2)nc1CS(=O)(=O)c1ccc(Cl)cc1 [Example 13, 4-(4-{[(4-Chlorophenyl)sulfonyl]methyl}-5-methyl-1,3-oxazol-2-yl)-N-(3-pyridinylmethyl)benzamide]",220 to 222
20,"Cc1ccc(S(=O)(=O)Cc2nc(-c3ccc(C(=O)NCc4ccccn4)cc3)oc2C)cc1 [Example 4, 4-(5-Methyl-4-{[(4-methylphenyl)sulfonyl]methyl}-1,3-oxazol-2-yl)-N-(2-pyridinylmethyl)benzamide]",154 to 155
21,"Cc1ccc(S(=O)(=O)Cc2nc(-c3ccc(C(=O)Nc4cccnc4)cc3)oc2C)cc1 [Example 1, 4-(5-Methyl-4-{[(4-methylphenyl)sulfonyl]methyl}-1,3-oxazol-2-yl)-N-(3-pyridinyl)benzamide]",248 to 250
22,"Cc1oc(-c2ccc(C(=O)NCc3ccccc3)cc2)nc1CS(=O)(=O)c1ccc(Br)cc1 [Example 27, N-Benzyl-4-(4-{[(4-bromophenyl)sulfonyl]methyl}-5-methyl-1,3-oxazol-2-yl)benzamide]",234 to 237
23,"COc1cccc(S(=O)(=O)Cc2nc(-c3ccc(C(=O)NCc4cccnc4)cc3)oc2C)c1 [Example 19, 4-(5-Methyl-4-{[(3-methoxyphenyl)sulfonyl]methyl}-1,3-oxazol-2-yl)-N-(3-pyridinylmethyl)benzamide]",143 to 145
24,"Cc1cc(C)cc(S(=O)(=O)Cc2nc(-c3ccc(C(=O)NCc4cccnc4)cc3)oc2C)c1 [Example 15, 4-(4-{[(3,5-Dimethylphenyl)sulfonyl]methyl}-5-methyl-1,3-oxazol-2-yl)-N-(3-pyridinylmethyl)benzamide]",188 to 190
25,"Cc1ccc(S(=O)(=O)Cc2nc(-c3ccc(C(=O)NCc4cncn4C)cc3)oc2C)cc1 [Example 11, N-[(1-Methyl-1H-imidazol-5-yl)methyl]-4-(5-methyl-4-{[(4-methylphenyl)sulfonyl]methyl}-1,3-oxazol-2-yl)benzamide]",240 to 242
26,"COc1ccc(S(=O)(=O)Cc2nc(-c3ccc(C(=O)NCc4cccnc4)cc3)oc2C)cc1OC [Example 20, 4-(4-{[(3,4-Dimethoxyphenyl)sulfonyl]methyl}-5-methyl-1,3-oxazol-2-yl)-N-(3-pyridinylmethyl)benzamide]",104 to 108
27,"Cc1oc(-c2ccc(C(=O)NCc3cccnc3)cc2)nc1CS(=O)(=O)c1ccc(F)cc1 [Example 22, 4-(4-{[(4-Fluorophenyl)sulfonyl]methyl}-5-methyl-1,3-oxazol-2-yl)-N-(3-pyridinylmethyl)benzamide]",218 to 220
